Laboratory results taken from patent US12338256B2, “Aza-tetracyclic oxazepine compounds and uses thereof” (Genentech, Inc., priority 2022, dated 2025).
Read-outs that look alike come from different tables or passages of the source.

Assays:
[1] = tested on: HPAC (homozygous mutant KRAS G12D human pancreatic cell line); assay: KRAS 3D-Cell Proliferation Assay, HPAC (Example 503); format: cell-based; details: HPAC 3D culture, 7 days, CellTiter-Glo 3D, read-out: Prolif HPAC 3D ATP IC50
Method: (§1) Example 503: KRAS 3D-Cell Proliferation Assays. Cellular potencies of compounds are assessed by evaluating inhibition of proliferation in 3D cultures of homozygous mutant KRAS G12D human pancreatic cell lines (AsPC-1 and HPAC) as compared to a KRAS wild type human lung adenocarcinoma cell line (PC-9 and/or H1975). Cells are seeded into 384-well black round-bottom, ultra-low attachment assay plates in 50 uL cell growth medium (RPMI-1640 with 10% fetal bovine serum and 2 mM L-glutamine). After overnight incubation at 37° C. and 5% CO2, compounds solubilized in DMSO are added as dilution series to the wells in a total volume of 150 nL (0.3% DMSO final). The cells are incubated for 7 days at 37° C. and 5% CO2. Cell proliferation is quantitated by addition of 40 uL/well of CellTiter-GloÒ 3D (Promega), and the well contents are mixed 20× at high speed using liquid handling automation workstation (Bravo with 384-well head) and centrifuged at 1500 rpm for 2 minutes to eliminate bubbles. This reagent in combination with mechanical disruption releases the cellular ATP to promote activity in a luciferase-based enzyme/substrate chemiluminescent detection system. After a 30-minute incubation under ambient conditions with shaking and an additional 10 minutes without shaking, the luminescence is read on a plate reader (e.g., EnVision [PerkinElmer]). The results are normalized to percent inhibition based on the following control samples: DMSO (0% inhibition) and 1 μM staurosporine (100% inhibition). The normalized luminescence results are plotted against compound concentration, and the data are fit to a 4-parameter Hill equation to determine the IC50 values.

[2] = tested on: H1975 (KRAS wild type human lung adenocarcinoma cell line); assay: KRAS 3D-Cell Proliferation Assay, H1975 (Example 503); format: cell-based; details: H1975 3D culture, 7 days, CellTiter-Glo 3D, read-out: Prolif H1975 3D ATP IC50
Method: as §1

SMILES | IC50 [1] [nM] | IC50 ([2]; Homo sapiens, NCI-H1975, 168 h) [nM] | IC50 ([1]; Homo sapiens, HPAC, 168 h) [nM] | IC50 [2] [nM]
Cc1c(F)c(N)cc(-c2nc3c4c(nc(OC[C@@]56CCCN5C[C@H](F)C6)nc4c2F)N2C[C@H]4CC[C@H](N4)C2C(C(F)F)O3)c1C(F)(F)F (single isomer, unassigned) [238 (isomer 2)] | 2000 |  |  | 
Cc1c(F)c(N)cc(-c2nc3c4c(nc(OC[C@@H]5CO[C@H]6CC[N@]5C6)nc4c2F)N2C[C@H]4CC[C@H](N4)[C@H]2[C@H](C)O3)c1C(F)(F)F [Compound 135, 5-((5S,5aS,6S,9R)-12-(((1R,2S,5S)-4-Oxa-1-azabicyclo[3.2.1]octan-2-yl)methoxy)-1-fluoro-5-methyl-5a,6,7,8,9,10-hexahydro-5H-4-oxa-3,10a,11,13,14-pentaaza-6,9-methanonaphtho[1,8-ab]heptalen-2-yl)-2-fluoro-3-methyl-4-(trifluoromethyl)aniline] |  | 20000 | 95.6 | 
Cc1c(F)c(N)c(F)c(-c2nc3c4c(nc(OC[C@@]56CCCN5C/C(=C\F)C6)nc4c2F)N2C[C@H]4CC[C@H](N4)[C@H]2[C@H](C)O3)c1C(F)(F)F [Compound 229, 2,6-Difluoro-3-((5S,5aS,6S,9R)-1-fluoro-12-(((S,Z)-2-(fluoromethylene)tetrahydro-1H-pyrrolizin-7a(5H)-yl)methoxy)-5-methyl-5a,6,7,8,9,10-hexahydro-5H-4-oxa-3,10a,11,13,14-pentaaza-6,9-methanonaphtho[1,8-ab]heptalene-2-yl)-5-methyl-4-(trifluoromethyl)aniline] |  | 639 | 1.82 | 
C[C@@H]1Oc2nc(-c3[nH]c(=O)cc4ccccc34)c(F)c3nc(OC[C@@]45CCCN4C[C@H](F)C5)nc(c23)N2C[C@H]3CC[C@H](N3)[C@@H]12 [Compound 105, 1-((5S,5aS,6S,9R)-1-Fluoro-12-(((2R,7aS)-2-fluorotetrahydro-1H-pyrrolizin-7a(5H)-yl)methoxy)-5-methyl-5a,6,7,8,9,10-hexahydro-5H-4-oxa-3,10a,11,13,14-pentaaza-6,9-methanonaphtho[1,8-ab]heptalen-2-yl)isoquinolin-3(2H)-one] |  | 20000 | 2000 | 
C[C@@H]1Oc2nc(-c3c(F)ccc4cc[nH]c(=O)c34)c(F)c3nc(OC[C@@]45CCCN4C[C@H](F)C5)nc(c23)N2C[C@H]3CC[C@H](N3)[C@@H]12 [Compound 196, 7-Fluoro-8-((5S,5aS,6S,9R)-1-fluoro-12-(((2R,7aS)-2-fluorotetrahydro-1H-pyrrolizin-7a(5H)-yl)methoxy)-5-methyl-5a,6,7,8,9,10-hexahydro-5H-4-oxa-3,10a,11,13,14-pentaaza-6,9-methanonaphtho[1,8-ab]heptalen-2-yl)isoquinolin-1(2H)-one] |  | 20000 | 20000 | 
Cc1nc(N)cc(-c2nc3c4c(nc(OCC5(CN6CC7CCC6CO7)CC5)nc4c2F)N2C[C@H]4CC[C@H](N4)[C@H]2[C@H](C)O3)c1C(F)(F)F [Compound 211, 4-((5S,5aS,6S,9R)-12-((1-((2-Oxa-5-azabicyclo[2.2.2]octan-5-yl)methyl)cyclopropyl)methoxy)-1-fluoro-5-methyl-5°,6,7,8,9,10-hexahydro-5H-4-oxa-3,10°,11,13,14-pentaaza-6,9-methanonaphtho[1,8-ab]heptalen-2-yl)-6-methyl-5-(trifluoromethyl)pyridin-2-amine] |  | 1150 | 1.45 | 
C[C@@H]1Oc2nc(-c3cc(N)ccc3C(F)(F)F)c(F)c3nc(OC[C@@]45CCCN4C[C@H](F)C5)nc(c23)N2C[C@H]3CC[C@H](N3)[C@@H]12 [Compound 72, 3-((5S,5aS,6S,9R)-1-Fluoro-12-(((2R,7aS)-2-fluorotetrahydro-1H-pyrrolizin-7a(5H)-yl)methoxy)-5-methyl-5a,6,7,8,9,10-hexahydro-5H-4-oxa-3,10a,11,13,14-pentaaza-6,9-methanonaphtho[1,8-ab]heptalen-2-yl)-4-(trifluoromethyl)aniline] |  | 1060 | 3.16 | 
C[C@@H]1Oc2nc(-c3cc(N)c(F)cc3C(C)(F)F)c(F)c3nc(OC[C@@]45CCCN4C[C@H](F)C5)nc(c23)N2C[C@H]3CC[C@H](N3)[C@@H]12 [Compound 73, 4-(1,1-difluoroethyl)-2-fluoro-5-((5S,5aS,6S,9R)-1-fluoro-12-(((2R,7aS)-2-fluorotetrahydro-1H-pyrrolizin-7a(5H)-yl)methoxy)-5-methyl-5a,6,7,8,9,10-hexahydro-5H-4-oxa-3,10a,11,13,14-pentaaza-6,9-methanonaphtho[1,8-ab]heptalen-2-yl)aniline] |  | 4090 | 16.3 | 
Cc1cc(N)c(F)c(-c2nc3c4c(nc(OC[C@@H]5CC[C@H]6COCCN65)nc4c2F)N2C[C@H]4CC[C@H](N4)[C@H]2[C@H](C)O3)c1C1CC1 [Compound 98, 4-Cyclopropyl-2-fluoro-3-((5S,5aS,6S,9R)-1-fluoro-12-(((6S,8aS)-hexahydro-1H-pyrrolo[2,1-c][1,4]oxazin-6-yl)methoxy)-5-methyl-5a,6,7,8,9,10-hexahydro-5H-4-oxa-3,10a,11,13,14-pentaaza-6,9-methanonaphtho[1,8-ab]heptalen-2-yl)-5-methylaniline] |  | 2750 | 26.2 | 
Cc1nc(N)cc(-c2nc3c4c(nc(OCC5(CN6CC[C@H](F)C6)CC5)nc4c2F)N2C[C@H]4CC[C@H](N4)[C@H]2[C@H](C)O3)c1C(F)(F)F [Compound 283, 4-((5S,5aS,6S,9R)-1-fluoro-12-((1-(((S)-3-fluoropyrrolidin-1-yl)methyl)cyclopropyl)methoxy)-5-methyl-5a,6,7,8,9,10-hexahydro-5H-4-oxa-3,10a,11,13,14-pentaaza-6,9-methanonaphtho[1,8-ab]heptalene-2-yl)-6-methyl-5-(trifluoromethyl)pyridin-2-amine] |  | 577 | 1.58 | 
Cc1c(F)c(N)cc(-c2nc3c4c(nc(OC[C@@]56CCCN5C[C@H](F)C6)nc4c2F)N2C[C@H]4CC[C@H](NC4)[C@H]2CO3)c1C(F)(F)F [Compound 236, 2-Fluoro-5-((5aS,6S,9S)-1-fluoro-12-(((2R,7aS)-2-fluorotetrahydro-1H-pyrrolizin-7a(5H)-yl)methoxy)-5a,6,7,8,9,10-hexahydro-5H-4-oxa-3,10a,11,13,15-pentaaza-6,9-ethanonaphtho[1,8-ab]heptalene-2-yl)-3-methyl-4-(trifluoromethyl)aniline] |  | 14500 | 2000 | 
COCC1(F)CCN(CC2(COc3nc4c5c(nc(-c6cc(N)nc(C)c6C(F)(F)F)c(F)c5n3)O[C@@H](C)[C@@H]3[C@@H]5CC[C@H](CN43)N5)CC2)C1 (stereo partly drawn) [Compound 270, 4-((5S,5aS,6S,9R)-1-fluoro-12-((1-((3-fluoro-3-(methoxymethyl)pyrrolidin-1-yl)methyl)cyclopropyl)methoxy)-5-methyl-5a,6,7,8,9,10-hexahydro-5H-4-oxa-3,10a,11,13,14-pentaaza-6,9-methanonaphtho[1,8-ab]heptalen-2-yl)-6-methyl-5-(trifluoromethyl)pyridin-2-amine] |  | 2480 | 2.52 | 
Cc1c(F)c(N)cc(-c2nc3c4c(nc(OCC56CCCN5CCN(C)C6=O)nc4c2F)N2C[C@H]4CC[C@H](N4)[C@H]2[C@H](C)O3)c1C(F)(F)F (single isomer, unassigned) [137 (isomer 2)] |  |  |  | 20000
Cc1c(F)c(N)cc(-c2nc3c4c(nc(OCC5CC6COCCN65)nc4c2F)N2C[C@H]4CC[C@H](N4)[C@H]2[C@H](C)O3)c1C(F)(F)F (single isomer, unassigned) [159 (diast. 1)] |  |  | 36.9 | 
Cc1c(F)c(N)cc(-c2nc3c4c(nc(OCC56CCCN5CC(F)C6F)nc4c2F)N2CC4CCC(N4)C2C(C)O3)c1C(F)(F)F (single isomer, unassigned) [143 (isomer 3)] |  |  | 4.77 | 
C[C@@H]1Oc2nc(-c3cc(N)c(F)cc3[C@H](C)C(F)F)c(F)c3nc(OC[C@@]45CCCN4C[C@H](F)C5)nc(c23)N2C[C@H]3CC[C@H](N3)[C@@H]12 (single isomer, unassigned) [181 (isomer 1)] |  | 12300 |  | 
Cc1c(F)c(N)cc(-c2nc3c4c(nc(OCC5COCC6CCCN65)nc4c2F)N2CC4CCC(N4)C2C(C)O3)c1C(F)(F)F (single isomer, unassigned) [121 (isomer 1)] |  |  | 12.5 | 
Cc1c(F)c(N)cc(-c2nc3c4c(nc(OCC5CCC6CN(C)C(=O)CN56)nc4c2F)N2CC4CCC(N4)C2C(C)O3)c1C(F)(F)F (single isomer, unassigned) [131 (isomer 4)] |  | 6810 |  | 
Cc1nc(N)cc(-c2nc3c4c(nc(OCC5N(C)CC56CC6(F)F)nc4c2F)N2CC4CCC(N4)C2C(C(F)(F)F)O3)c1C(F)(F)F (single isomer, unassigned) [262 (isomer 2)] |  |  | 123 | 
Cc1c(F)c(N)cc(-c2nc3c4c(nc(OC[C@]5(CN6C[C@H]7C[C@@H]6CO7)CC5(F)F)nc4c2F)N2C[C@H]4CC[C@H](N4)[C@H]2[C@H](C)O3)c1C(F)(F)F (single isomer, unassigned) [166 a] | 1.44 |  |  | 
